The numbers were not newly measured in patent US20240287072A1, “SOLID STATE FORMS OF LUMATEPERONE SALTS AND PROCESSES FOR PREPARATION OF LUMATEPERONE AND SALTS THEREOF” (TEVA PHARMACEUTICALS INTERNATIONAL GMBH, priority 2018, published 2024), which cites them from elsewhere.

The conditions of series [1]: hydrochloride salt disclosed in U.S. Pat. No. 7,183,282.
For series [2] the following is noted: hydrochloride salt disclosed in U.S. Pat. No. 7,183,282. The source holds these as a separate data set.
The conditions of series [3]: free base form, oily, sticky solid.

Structures are written as SMILES. Where a name gives a salt, the structure may show the parent alone.

With `CN1CCN2c3c(cccc31)[C@@H]1CN(CCCC(=O)c3ccc(F)cc3)CC[C@@H]12` [hydrochloride salt of lumateperone], the stability entry in series [1] is given as “poor”. The hygroscopicity entry in series [2] was “hygroscopic”.

Regarding `CN1CCN2c3c(cccc31)[C@@H]1CN(CCCC(=O)c3ccc(F)cc3)CC[C@@H]12` [lumateperone, 1-(4-fluorophenyl)-4-((6bR, 10aS)-3-methyl-2,3,6b,9,10,10a-hexahydro-1H-pyrido[3′,4′:4,5]pyrrolo[1,2,3-de]quinoxalin-8(7H)-yl)butan-1-one], the solubility result in series [3] is listed as “poor”.
